The values below come from US12129233B2, “Water-soluble salts of cannabinoids, preparation and uses thereof” (priority 2021, dated 2024).

For data set [1] the following is noted: in water; synthesized salts (and cannabinol parent).
A further data set can be described thus: physchem. Particulars: water.
For data set [2] the following is noted: in water; parent cannabinoid without base, literature value (footnotes a-f); cited from earlier work.
Where [3] appears, read: Solubility, in water, synthesized salts (and cannabinol parent).

Where a name gives a salt, the structure may show the parent alone. Read-outs that look alike come from different tables or passages of the source.

By Solubility is commonly meant the dissolved amount per volume that the medium holds. For the molecule `CCCCCc1cc(O)c2c(c1)OC(C)(C)c1ccc(C)cc1-2` [drawing 39, Cannabinol, reference compound], the Solubility entry in data set [1] is reported as “insoluble”.
Consider `CCCc1cc(O)c2c(c1)OC(C)(C)C1CCC(C)=CC21` (centres unmarked) [drawing 37/drawing 38 1:1, Tetrakis(2-hydroxyethyl)ammonium Salt with Δ^9-Tetrahydrocannabivarin (1:1)], for which the Solubility in data set [1] is 7000 µg/mL.
Consider `CCCCCc1cc2c(c(O)c1C(=O)O)C1C=C(C)CCC1C(C)(C)O2` (centres unmarked) [drawing 32/drawing 33 1:2, Choline Salt with Tetrahydrocannabinolic Acid (2:1)], for which, in the data set “physchem” (setting [3]), the Solubility amounted to 20000 µg/mL.
Regarding `CCCc1cc(O)c2c(c1)OC(C)(C)C1CCC(C)=CC21` (centres unmarked) [drawing 37, Δ^9-Tetrahydrocannabivarin], in data set [2], the Solubility was 0.009^[f] mg/mL.
On to `C=C(C)[C@@H]1CCC(C)=C[C@H]1c1c(O)cc(CCCCC)c(C(=O)O)c1O` [Cannabidiolic acid], for which the Solubility in data set [2] was 2.2^[c] mg/mL.
With `C=C(C)C1CCC(C)=CC1c1c(O)cc(CCCCC)c(C(=O)O)c1O` (centres unmarked) [drawing 30/drawing 31 1:3, Choline Salt with Cannabidiolic Acid (3:1)], the Solubility in “physchem” (setting [3]) came to 24000 µg/mL.
On to `CCCCCc1cc(O)c2c(c1)OC(C)(C)C1CCC(C)=CC21` [drawing 25/drawing 27 1:1, L-Lysine Salt with THC (1:1)], for which the Solubility in data set [1] was determined as 2000 µg/mL.
Consider `CCCCCc1cc(O)c2c(c1)OC(C)(C)c1ccc(C)cc1-2` [drawing 39/Et4N^+ 1:1, Tetraethylammonium Salt with Cannabinol (1:1)], for which, in data set [1], the Solubility was 200 µg/mL.
Consider `CCCCCc1cc2c(c(O)c1C(=O)O)C1C=C(C)CCC1C(C)(C)O2` (centres unmarked) [drawing 32/drawing 34 1:2, Meglumine Salt with Tetrahydrocannabinolic Acid (2:1)], for which the Solubility in “physchem” (Solubility) amounted to 20000 µg/mL.
Regarding `C=C(C)[C@@H]1CCC(C)=C[C@H]1c1c(O)cc(CCCCC)cc1O` [Cannabidiol], the Solubility in data set [2] was 0.0007^[a] mg/mL.
Turning to `CCCCCc1cc(O)c2c(c1)OC(C)(C)C1CCC(C)=CC21` (centres unmarked) [drawing 25/drawing 26 1:1, Choline Salt with THC (1:1)], in data set [1], the Solubility came to 3000 µg/mL.
On the same count and under the same terms, the value for `CCCCCc1cc(O)c2c(c1)OC(C)(C)c1ccc(C)cc1-2` [drawing 39/drawing 41 1:1, Acetylcholine Salt with Cannabinol (1:1)] was 1000 µg/mL.
In the case of `CCCCCc1cc(O)c2c(c1)OC(C)(C)C1CCC(C)=CC21` (centres unmarked) [drawing 25/drawing 28 1:1, Meglumine Salt with THC (1:1)], in the data set “physchem” (Solubility), the Solubility turned out to be 9000 µg/mL.
For the molecule `CCCCCc1cc2c(c(O)c1C(=O)O)C1C=C(C)CCC1C(C)(C)O2` (centres unmarked) [drawing 32, Tetrahydrocannabinolic acid], the Solubility in data set [2] is 0.048^[d] mg/mL.
Consider `CCCc1cc(O)c2c(c1)OC(C)(C)C1CCC(C)=CC21` (centres unmarked) [drawing 37/n^−Bu4N^+ 1:1, Tetrabutylammonium Salt with Δ^9-Tetrahydrocannabivarin (1:1)], for which the Solubility in data set [1] was found to be 200 µg/mL.
With `CCCCCc1cc(O)c2c(c1)OC(C)(C)C1CCC(C)=CC21` (centres unmarked) [drawing 25, Δ^9-tetrahydrocannabinol], in data set [2], the Solubility was 0.0028^[b] mg/mL.
Turning to “Procaine Salt with CBD (1:1) [drawing 17/drawing 22 1:1]”, the Solubility in data set [1] worked out at 5000 µg/mL.
With “Procaine Salt with CBD (2:1) [drawing 17/drawing 22 1:2]”, the Solubility in data set [1] is 6000 µg/mL.
Regarding `CCCCCc1cc(O)c(C/C=C(\C)CCC=C(C)C)c(O)c1` [drawing 35/drawing 36 1:1, 1-Benzylpyridinium cannabigerol salt (1:1)], the Solubility in “physchem” amounted to 1000 µg/mL.
`CCCCCc1cc(O)c2c(c1)OC(C)(C)C1CCC(C)=CC21` (centres unmarked) [drawing 25/drawing 29 1:1, Agmatine Salt with THC (1:1)]: in data set [1], the Solubility worked out at 200 µg/mL.
